Test: Pharmacokinetics of orally administered salmon calcitonin combined with 5-CNAC
Type: in vivo
Description: An oral form of calcitonin would improve patient acceptance and facilitate improved patient compliance by providing a more acceptable, alternative delivery route for peptide therapy. […] Salmon calcitonin appears rapidly in the plasma following oral administration, with median tmax at about 0.25 hr post-dose. Following tmax the plasma concentration fell rapidly. […] Plasma sCT concentrations increased as sCT doses increased. However, with high variability in available data, dose-proportional increase in AUC could not be confirmed.

CC(C)C[C@H](NC(=O)[C@H](CCCCN)NC(=O)CNC(=O)[C@H](CC(C)C)NC(=O)[C@@H](NC(=O)[C@@H]1CSSC[C@H](N)C(=O)N[C@@H](CO)C(=O)N[C@@H](CC(N)=O)C(=O)N[C@@H](CC(C)C)C(=O)N[C@@H](CO)C(=O)N[C@@H]([C@@H](C)O)C(=O)N1)C(C)C)C(=O)N[C@@H](CO)C(=O)N[C@@H](CCC(N)=O)C(=O)N[C@@H](CCC(=O)O)C(=O)N[C@@H](CC(C)C)C(=O)N[C@@H](Cc1c[nH]cn1)C(=O)N[C@@H](CCCCN)C(=O)N[C@@H](CC(C)C)C(=O)N[C@@H](CCC(N)=O)C(=O)N[C@H](C(=O)N[C@@H](Cc1ccc(O)cc1)C(=O)N1CCC[C@H]1C(=O)N[C@@H](CCCNC(=N)N)C(=O)N[C@H](C(=O)N[C@@H](CC(N)=O)C(=O)N[C@H](C(=O)NCC(=O)N[C@@H](CO)C(=O)NCC(=O)N[C@H](C(=O)N1CCC[C@H]1C(N)=O)[C@@H](C)O)[C@@H](C)O)[C@@H](C)O)[C@@H](C)O [salmon calcitonin]
effect of food on bioavailability of sCT (administered with food): markedly reduces | accumulation (AUC after multiple-dose vs single-dose) (oral): No significant accumulation | gastrointestinal (GI) absorption of the sCT (oral, combination with 5-CNAC, rodents, monkeys and humans): marked increase | Tmax (plasma, following oral administration, post-dose, read-out: median tmax): ~15 min

From patent US20150283212A1, “ORAL CALCITONIN COMPOSITIONS AND APPLICATIONS THEREOF” (Novartis AG, priority 2007, published 2015)
